# Measured values from patent US20250296932A1, “PHARMACEUTICAL COMPOSITIONS COMPRISING HIV INTEGRASE INHIBITORS” (priority 2024, published 2025).
# Experiments:
# [1] = test system: HIV-1 (HXB2) site directed mutant Y143R; test: HIV-1 replication in MT-4 cells, INSTI resistant site-directed mutant Y143R; format: cell-based; conditions: 5 days, Cell Titer Glo, at least 3 independent experiments in quadruplicate
# Experimental: (§1) The compound of Formula I, along with control compounds bictegravir and raltegravir, were tested in a high-throughput 384-well assay format for ability to inhibit the replication of HIV-1 (HXB2) in MT-4 cells. Compounds were serially diluted (1:3) in 10 ul DMSO on 384-well plates and then diluted 187-fold into complete RPMI media using the uFLow and Biomek FX. 0.4 uL of compound was added in quadruplicate to 384-well assay plates. Each plate contained 8 test compounds, plus DMSO negative and 5 uM AZT positive controls. 1 mL aliquots of 2M MT-4 cells were pre-infected for 1 hr, @ 37° C. with 25 uL (MT-4) of either RPMI (mock-infected) or a fresh 1:250 dilution of an HIV-1 (HXB2 WT or site directed mutants containing either single INSTI Mutations E92Q, Y143R, Q148R, N155H, or R263K or double mutations E92Q/N155H, E138K/Q148K, or G140S/Q148R) concentrated ABI stock. Infected and uninfected cells were diluted in RPMI and 35 uL containing 2000 MT-4 cells was added to each well of assay plates, using the uFLow and subsequently incubated for 5 days at 37° C. in an incubator set at 5% CO2 and 90% humidity. After 5 days, 22 uL Cell Titer Glo (Promega, Madison, WI, Cat #G7573) was added to the assay plates with a Biotek uFlow Workstation. Plates were subsequently placed on a Perkin Elmer Envision Plate Reader for 5 minutes before the luminescence signal was read. EC50 values were defined as the compound concentration that causes a 50 decrease in luminescence signal, a measure of HIV-1 replication, and were calculated in Accord (online tool) using a one-site dose-response model to generate sigmoidal curve fits. Fold shifts for mutant viruses were obtained by calculating EC50 values relative to the HXB2 WT control.
# (§2) The mean fold change values (relative to WT) are from at least 3 independent experiments assayed in quadruplicate.
# [2] = test system: HIV-1 (HXB2) site directed mutant G140S/Q148R; test: HIV-1 replication in MT-4 cells, INSTI resistant site-directed mutant G140S/Q148R; format: cell-based; conditions: 5 days, Cell Titer Glo, at least 3 independent experiments in quadruplicate
# Experimental: as §1, §2
# [3] = test system: HIV-1 (HXB2) site directed mutant E92Q/N155H; test: HIV-1 replication in MT-4 cells, INSTI resistant site-directed mutant E92Q/N155H; format: cell-based; conditions: 5 days, Cell Titer Glo, at least 3 independent experiments in quadruplicate
# Experimental: as §1, §2
# [4] = test system: HIV-1 (HXB2) site directed mutant N155H; test: HIV-1 replication in MT-4 cells, INSTI resistant site-directed mutant N155H; format: cell-based; conditions: 5 days, Cell Titer Glo, at least 3 independent experiments in quadruplicate
# Experimental: as §1, §2
# [5] = test system: HIV-1 (HXB2) site directed mutant E92Q; test: HIV-1 replication in MT-4 cells, INSTI resistant site-directed mutant E92Q; format: cell-based; conditions: 5 days, Cell Titer Glo, at least 3 independent experiments in quadruplicate
# Experimental: as §1, §2
# [6] = test system: HIV-1 (HXB2) site directed mutant Q148R; test: HIV-1 replication in MT-4 cells, INSTI resistant site-directed mutant Q148R; format: cell-based; conditions: 5 days, Cell Titer Glo, at least 3 independent experiments in quadruplicate
# Experimental: as §1, §2
# [7] = test system: HIV-1 (HXB2) site directed mutant R263K; test: HIV-1 replication in MT-4 cells, INSTI resistant site-directed mutant R263K; format: cell-based; conditions: 5 days, Cell Titer Glo, at least 3 independent experiments in quadruplicate
# Experimental: as §1, §2
# [8] = test system: HIV-1 (HXB2) site directed mutant E138K/Q148K; test: HIV-1 replication in MT-4 cells, INSTI resistant site-directed mutant E138K/Q148K; format: cell-based; conditions: 5 days, Cell Titer Glo, at least 3 independent experiments in quadruplicate
# Experimental: as §1, §2
# [9] = test system: PI-resistant (PI-r) HIV-1 mutants (HXB2-based viruses encoding protease mutations 150V, 184V+L90M, G48V+V82A+L90M, G48V+V82S); test: Antiviral potency against panel of HIV-1 mutants: PI-resistant; format: cell-based; conditions: relative to WT; at least three experiments run in triplicate; controls: PIs (DRV, ATV)
# Experimental: (§3) The human T-lymphoblastoid MT-2 and SupTI cell lines were obtained from the NIH AIDS Reagent Program (Germantown, MD) and maintained in RPMI-1640 medium supplemented with 10% heat-inactivated fetal bovine serum, 100 units/mL penicillin, and 10 μg/mL streptomycin (complete RPMI media). Cells were passaged twice per week and kept at densities less than 800,000 cells per mL. Adherent HEK293T cells were obtained from the Gladstone Institute for Virology and Immunology (San Francisco, CA) and maintained at densities below 80% confluency in Dulbecco's Modified Eagle Medium (DMEM) (Gibco) supplemented with 10% heat-inactivated FBS, 100 units/mL penicillin, and 10 μg/mL streptomycin (complete DMEM media). Unless otherwise noted, HIV-1 recombinant strains carrying mutations were prepared by transfecting infectious proviral pLAI-based or pHXB2-based cDNA clones into MT-2 cells and harvesting the cell supernatants. The NNRTI-resistant HXB2-based viruses encoding reverse transcriptase (RT) mutations (K103N, Y181C, Y188L, L100I+K103N, and G190A) were constructed by site-directed mutagenesis. The NRTI-resistant LAI-based viruses encoding RT mutations K65R, M184V, and M41L+T215Y were constructed by site-directed mutagenesis. […].
# (§4) The EC50 fold change range is the mean±standard deviation from at least three experiments run in triplicate. […]
# [10] = test system: NNRTI-resistant (NNRTI-r) HIV-1 mutants (HXB2-based viruses encoding RT mutations K103N, Y181C, Y188L, L100I+K103N, G190A); test: Antiviral potency against panel of HIV-1 mutants: NNRTI-resistant; format: cell-based; conditions: relative to WT; at least three experiments run in triplicate; control: NNRTI (EFV)
# Experimental: as §3, §4
# [11] = test system: NRTI-resistant (NRTI-r) HIV-1 mutants (LAI-based viruses encoding RT mutations K65R, M184V, M41L+T215Y); test: Antiviral potency against panel of HIV-1 mutants: NRTI-resistant; format: cell-based; conditions: relative to WT; at least three experiments run in triplicate; controls: NRTIs (TAF, FTC)
# Experimental: as §3, §4
# [12] = test system: CAI-resistant (CAI-r) HIV-1 reporter viruses encoding capsid mutations (L56I, N57H, M66I, K70N, Q67H+N74D, Q67H+T107N); test: Antiviral potency against panel of HIV-1 mutants: CAI-resistant single cycle reporter viruses; format: cell-based; conditions: relative to WT; at least three experiments run in triplicate; control: CAI (LEN)
# Experimental: as §3, §4
# [13] = Hygroscopicity by dynamic vapor sorption (DVS) of crystalline forms, salts and co-crystals; format: physicochemical
# Experimental: Hygroscopicity was studied using dynamic vapor sorption (DVS, TA Q5000 SA, TA Instruments, New Castle, DE or DVS, DVS Intrinsic, Surface Measurement Systems, London, UK). […] The water sorption and desorption were studied as a function of relative humidity (RH) at 25° C. […] Data analysis was performed using Universal Analysis 2000 Version 4.7A (TA Instruments, New Castle, DE) for TA DVS runs and Microsoft Excel for SMS DVS runs.
structure (smiles),measurement,setting,value
Cc1nnc(C(=O)NC(C)(C)c2nc(C(=O)NCc3ccc(F)cc3)c(O)c(=O)n2C)o1 [Raltegravir],"Mean EC50 Fold Change (relative to WT), Y143R",[1],18 fold
same,"Mean EC50 Fold Change (relative to WT), G140S/Q148R",[2],108 fold
same,"Mean EC50 Fold Change (relative to WT), E92Q/N155H",[3],58 fold
same,"Mean EC50 Fold Change (relative to WT), N155H",[4],6.1 fold
same,"Mean EC50 Fold Change (relative to WT), E92Q",[5],4.8 fold
same,"Mean EC50 Fold Change (relative to WT), Q148R",[6],16 fold
same,"Mean EC50 Fold Change (relative to WT), R263K",[7],1.1 fold
same,"Mean EC50 Fold Change (relative to WT), E138K/Q148K",[8],6.5 fold
"C[C@@H]1C=C[C@H](C)N2CN1n1cc(C(=O)NCc3c(F)cc(F)cc3F)c(=O)c(O)c1C2=O [Compound of Formula I, (1S,2R,5S)-8-hydroxy-2,5-dimethyl-7,9-dioxo-N-(2,4,6-trifluorobenzyl)-2,5,7,9-tetrahydro-1,6-methanopyrido[1,2-b][1,2,5]triazonine-10-carboxamide]","Mean EC50 Fold Change (relative to WT), Y143R",[1],2.5 fold
same,"EC50 Fold Change, Range, PI-r",[9],0.4-1.3 fold
same,"EC50 Fold Change, Range, NNRTI-r",[10],0.7-2.4 fold
same,"Mean EC50 Fold Change (relative to WT), G140S/Q148R",[2],5.5 fold
same,"Mean EC50 Fold Change (relative to WT), E92Q/N155H",[3],1.8 fold
same,"Mean EC50 Fold Change (relative to WT), N155H",[4],1.9 fold
same,"Mean EC50 Fold Change (relative to WT), E92Q",[5],2.7 fold
same,"EC50 Fold Change, Range, NRTI-r",[11],0.4-0.8 fold
same,"EC50 Fold Change, Range, CAI-r",[12],0.8-1.2 fold
same,"Mean EC50 Fold Change (relative to WT), Q148R",[6],1.0 fold
same,"Mean EC50 Fold Change (relative to WT), R263K",[7],2.0 fold
same,"Mean EC50 Fold Change (relative to WT), E138K/Q148K",[8],9.5 fold
"C[C@@H]1C=C[C@H](C)N2CN1n1cc(C(=O)NCc3c(F)cc(F)cc3F)c(=O)c(O)c1C2=O [Compound of Formula I, Form I, (1S,2R,5S)-8-hydroxy-2,5-dimethyl-7,9-dioxo-N-(2,4,6-trifluorobenzyl)-2,5,7,9-tetrahydro-1,6-methanopyrido[1,2-b][1,2,5]triazonine-10-carboxamide]",form of the material post DVS experiment,[13]; after DVS sorption/desorption at 25° C.,not have changed form
same,water absorbed (DVS),[13]; up to 95% RH at 25° C.,about 0.15%
O=C(NCc1c(F)cc(F)cc1F)c1cn2c(c(O)c1=O)C(=O)N1[C@H]3CC[C@H](C3)O[C@@H]1C2 [Bictegravir],"Mean EC50 Fold Change (relative to WT), Y143R",[1],1.8 fold
same,"Mean EC50 Fold Change (relative to WT), G140S/Q148R",[2],2.1 fold
same,"Mean EC50 Fold Change (relative to WT), E92Q/N155H",[3],1.2 fold
same,"Mean EC50 Fold Change (relative to WT), N155H",[4],1.3 fold
same,"Mean EC50 Fold Change (relative to WT), E92Q",[5],1.6 fold
same,"Mean EC50 Fold Change (relative to WT), Q148R",[6],0.7 fold
same,"Mean EC50 Fold Change (relative to WT), R263K",[7],1.9 fold
same,"Mean EC50 Fold Change (relative to WT), E138K/Q148K",[8],4.4 fold
